The results in this text go back to PubChem BioAssay (NCI).

Molecules are shown by their SMILES. Several values for one entry are separate records, joined by “and”; a condition that tells them apart may be missing. Identical values can stand only once.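 Briefly, cells in 96-well plates were exposed to five compound concentrations for 48 h, and endpoints were estimated by linear interpolation. GI50 is the concentration that inhibits growth by half. TGI: concentration producing complete growth inhibition.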

Test systems include UACC-257 melanoma; OVCAR-4 ovarian; HL-60(TB) leukemia; IGROV1 ovarian; KM12 colon; HOP-62 NSCLC; SNB-75 CNS; NCI-H460 lung; MDA-MB-231 breast.
Holding throughout (experiment): NCI anticancer screen, dose series, 48 h

As for `CC1NCCc2c1[nH]c1cc(O)ccc21` (configuration not stated), the TGI with UACC-257 melanoma, with OVCAR-4 ovarian, with HL-60(TB) leukemia, in the experiment on IGROV1 ovarian, in the experiment on KM12 colon and with HOP-62 NSCLC was greater than 100 µM throughout. The TGI in the experiment on SNB-75 CNS and in the experiment with NCI-H460 lung was greater than 100 µM in each case.
Take `CCOC(=O)N1CCc2cc(OC)c(OC)cc2/C1=C/c1ccc(OC)c(OC)c1`: the TGI with UACC-257 melanoma was greater than 100 µM; in the experiment on HL-60(TB) leukemia, 65.1 µM; with IGROV1 ovarian it was greater than 100 µM; in the experiment with KM12 colon, greater than 100 µM; in the experiment on HOP-62 NSCLC, greater than 100 µM; with SNB-75 CNS it was greater than 100 µM.
On to `CN(C)CCC(=O)N1CCc2c([nH]c3ccccc23)C1c1cccnc1` (configuration not stated), for which the TGI with UACC-257 melanoma, with OVCAR-4 ovarian, with HL-60(TB) leukemia, in the experiment on IGROV1 ovarian, with KM12 colon and in the experiment with HOP-62 NSCLC was greater than 100 µM each time. The TGI with SNB-75 CNS and with NCI-H460 lung was greater than 100 µM in each case.
In the case of `CN(C)CCC(/C=C/c1ccccc1)=N\Nc1ccc(Cl)cc1`, the TGI was determined as 14.5 µM in the experiment on UACC-257 melanoma; 21.7 µM in the experiment on OVCAR-4 ovarian; 5.32 µM with HL-60(TB) leukemia; 7.53 µM with IGROV1 ovarian; 10.9 µM in the experiment on KM12 colon; 4.07 µM in the experiment on HOP-62 NSCLC. In addition, the results for the TGI with SNB-75 CNS and in the experiment on NCI-H460 lung were 15.6 µM and 4.29 µM, respectively.
Regarding `C=C[Si](C)(C)COC(=O)/C(C#N)=C/C=C/c1ccccc1`, the TGI in the experiment on UACC-257 melanoma, in the experiment on OVCAR-4 ovarian, in the experiment with HL-60(TB) leukemia, with IGROV1 ovarian, in the experiment with KM12 colon and in the experiment with HOP-62 NSCLC was greater than 100 µM throughout. Moreover, the values for the TGI in the experiment on SNB-75 CNS and in the experiment with NCI-H460 lung were 94 µM and greater than 100 µM, respectively.
Regarding `NC1=NCC(c2ccccn2)C1c1ccc(F)cc1` (configuration not stated), the TGI in the experiment on UACC-257 melanoma, in the experiment on OVCAR-4 ovarian, in the experiment with IGROV1 ovarian, with KM12 colon, in the experiment on HOP-62 NSCLC and with SNB-75 CNS was greater than 100 µM each time. In the experiment on NCI-H460 lung, this molecule registered a TGI greater than 100 µM.
Turning to `CCCCCCCC(=O)NS(=O)(=O)c1ccccc1`, the TGI with OVCAR-4 ovarian, with MDA-MB-231 breast, with HL-60(TB) leukemia, in the experiment with IGROV1 ovarian, in the experiment with KM12 colon and in the experiment on HOP-62 NSCLC was greater than 100 µM each time. Also, the TGI in the experiment with SNB-75 CNS and in the experiment on NCI-H460 lung was greater than 100 µM throughout.
As for `Cc1cc(Cl)cc2c1NC(=O)C2(O)CC(=O)c1ccc(F)cc1` (configuration not stated), the TGI is greater than 100 µM with UACC-257 melanoma; 98.1 µM with OVCAR-4 ovarian; greater than 100 µM in the experiment on IGROV1 ovarian; greater than 100 µM with KM12 colon; greater than 100 µM with HOP-62 NSCLC; greater than 100 µM in the experiment with SNB-75 CNS. This molecule showed a TGI with NCI-H460 lung greater than 100 µM.
For the molecule `NC(=NCCO)c1ccc(N2CCCN(c3ccc(C(N)=NCCO)cc3)CC2)cc1`, the GI50 with UACC-257 melanoma is greater than 100 µM; in the experiment with OVCAR-4 ovarian, greater than 100 µM; with MDA-MB-231 breast, greater than 100 µM; in the experiment with KM12 colon, greater than 100 µM; with HOP-62 NSCLC, 91.7 µM; with SNB-75 CNS, greater than 100 µM. The TGI in the experiment on UACC-257 melanoma, with OVCAR-4 ovarian, in the experiment on MDA-MB-231 breast, in the experiment with KM12 colon, in the experiment on HOP-62 NSCLC and in the experiment on SNB-75 CNS was greater than 100 µM each time.
For the molecule `Cc1cccc(Cl)c1NC(=O)c1cccc([N+](=O)[O-])c1O`, the TGI was greater than 100 µM with UACC-257 melanoma; greater than 100 µM with OVCAR-4 ovarian; greater than 100 µM with IGROV1 ovarian; 66 µM with KM12 colon; 54.4 µM in the experiment with HOP-62 NSCLC; greater than 100 µM in the experiment with SNB-75 CNS. In the experiment with NCI-H460 lung, this molecule showed a TGI greater than 100 µM.
Consider `Cc1nc2ccccc2c(/C=C/c2ccccc2)c1C(=O)/C=C/c1ccc(Cl)cc1`, for which the GI50 is 2.36 µM in the experiment on OVCAR-4 ovarian; 1.46 µM with MDA-MB-231 breast; 0.871 µM in the experiment on HL-60(TB) leukemia; 1.86 µM with KM12 colon; 1.51 µM in the experiment on NCI-H460 lung. Besides, the TGI in the experiment on OVCAR-4 ovarian was greater than 100 µM; in the experiment with MDA-MB-231 breast, 4 µM; with HL-60(TB) leukemia, 3.12 µM; with KM12 colon, 4.78 µM; with NCI-H460 lung, 3.29 µM.
As to `O=[N+]([O-])c1ccc2nc3ccscc-3c2c1`, the TGI is greater than 100 µM in the experiment with UACC-257 melanoma; 31.4 µM with OVCAR-4 ovarian; 30.4 µM in the experiment on HL-60(TB) leukemia; greater than 100 µM with IGROV1 ovarian; 83.6 µM in the experiment with KM12 colon; 69.4 µM in the experiment with HOP-62 NSCLC. The TGI in the experiment with NCI-H460 lung amounted to 49.4 µM.
For `CC(=O)OCC1OC(n2c(=S)n(-c3ccccc3)c(=O)c3cc(Br)ccc32)C(OC(C)=O)C(OC(C)=O)C1OC(C)=O` (configuration not stated), the TGI in the experiment with UACC-257 melanoma, with OVCAR-4 ovarian, in the experiment on HL-60(TB) leukemia, with IGROV1 ovarian, in the experiment with KM12 colon and in the experiment on HOP-62 NSCLC was greater than 100 µM each time. Moreover, the TGI in the experiment on SNB-75 CNS is 99.2 µM and > 100 µM; with NCI-H460 lung it was greater than 100 µM. Besides, the GI50 in the experiment with OVCAR-4 ovarian is 10.6 µM and > 100 µM; in the experiment on SNB-75 CNS, 33.8 µM and > 100 µM.
For `Cc1cccc2cc3cccc(C(=O)NCCN(C)C)c3nc12`, the TGI in the experiment with UACC-257 melanoma was 1.46 µM; in the experiment with OVCAR-4 ovarian it was 2.32 µM; with HL-60(TB) leukemia it was 1.15 µM; with IGROV1 ovarian it was greater than 38.8 µM; in the experiment on KM12 colon, 6.12 µM; in the experiment with HOP-62 NSCLC it was 0.502 µM. Further, the values for the TGI with SNB-75 CNS and in the experiment with NCI-H460 lung were 0.825 µM and 0.312 µM, respectively.
In the case of `O=C1[C@@H]2C(c3ccncc3)=NO[C@@H]2C(=O)N1c1ccc(Cc2ccc(N3C(=O)[C@H]4C(c5ccncc5)=NO[C@H]4C3=O)cc2)cc1`, the TGI with UACC-257 melanoma, in the experiment on OVCAR-4 ovarian, with HL-60(TB) leukemia, in the experiment with IGROV1 ovarian, with KM12 colon and with HOP-62 NSCLC was greater than 100 µM each time. Moreover, the TGI in the experiment with SNB-75 CNS and in the experiment on NCI-H460 lung was greater than 100 µM throughout.
